Measurements published in patent US20110190137A1, “METHOD TO INHIBIT ETHYLENE RESPONSES IN PLANTS” (priority 2003, published 2011).

Legend:
[1] = system: ethylene-induced epinasty in Patio variety tomato plants; assay: Tomato epinasty test, volatile gas treatment; assay type: in vivo; conditions: for Gas @ 10 ppm: visual rating of protection against ethylene-induced epinasty: gas 10 ppm v/v, 10 ppm ethylene, scale 0 to 10 (10 = complete protection); for Gas @ 1000 ppm: visual rating of protection against ethylene-induced epinasty: gas 1000 ppm v/v, 10 ppm ethylene after 4 h, scored 16 h later, scale 0 (no protection) to 10 (complete protection)
Procedure: (§1) Objective: The test procedure is designed to determine the ability of an experimental compound to block the epinastic growth response induced by ethylene in tomato plants when the experimental compound is administered either as a volatile gas or as a component of a spray solution.
(§2) Treatment chambers are of an appropriate size for the test plants and are airtight. Each is fitted with a reusable septum to be used for injection of ethylene. Test plants are Patio variety tomato seedlings planted two plants per three inch square plastic pot.
Volatile gas treatment entails placing two pots of Patio var. tomatoes into a polystyrene 4.8 L volume treatment chamber along with one-half (upper or lower section) of a 50×9 mm plastic Petri dish containing a Gelman filter pad. The appropriate amount of experimental compound, dissolved in 1.0 ml acetone, is pipetted onto the filter pad and the chamber immediately sealed. Four hours later ethylene gas equal to 10 ppm v/v final concentration is injected into the sealed chamber. Sixteen hours later the chambers are opened in an exhaust hood, allowed to air and the plants scored visually for the degree of protection against ethylene-induced epinasty conferred by the experimental compound when compared to ethylene treated and untreated controls on a scale of 0 to 10. A rating of 10 means complete protection. A rating of 0 means no protection from the effects of ethylene. Gas treatment concentrations are volume/volume.

[2] = system: ethylene-induced epinasty in Patio variety tomato plants; assay: Tomato epinasty test, spray application treatment; assay type: in vivo; conditions: for Spray @10 ppm: visual rating of protection against ethylene-induced epinasty: spray 10 ppm in 10% acetone/90% water, 0.05% Silwett L-77, 10 ppm ethylene, scale 0 to 10 (10 = complete protection)
Procedure: as §1, §2
Spray application treatment entails using a DeVilbiss atomizer to completely cover all foliage and stems of two pots of Patio var. tomato plants with the appropriate amount of experimental compound dissolved in 10% acetone/90% water with 0.05% Silwett L-77 surfactant. Plants are air-dried in a drying hood for four hours then transferred to a 4.8 L polystyrene chamber which is sealed.
Ethylene gas equal to 10 ppm v/v final concentration is injected into the sealed chamber. Sixteen hours later the chambers are opened in an exhaust hood, allowed to air and the plants scored visually for the degree of protection against ethylene-induced epinasty conferred by the experimental compound when compared to ethylene treated and untreated controls on a scale of 0 to 10. A rating of 10 means complete protection. A rating of 0 means no protection from the effects of ethylene.

| Compound | Gas @ 10 ppm: visual rating of protection against ethylene-induced epinasty [1] | Spray @10 ppm: visual rating of protection against ethylene-induced epinasty [2] | Gas @ 1000 ppm: visual rating of protection against ethylene-induced epinasty [1] | other results |
| --- | --- | --- | --- | --- |
| Clc1ccc(SCCC2=CC2)cc1 [Compound 9, 1-(2-(4-Chlorophenylthio)ethyl)cyclopropene] | 10 | 10 | – | – |
| CS(=O)(=O)Oc1ccc(C(=O)OCCCCCCCC2=CC2)cc1 [Compound 53, 1-(7-(4-Methanesulfonyloxyphenyl)-carbonyloxyheptyl)-cyclopropene] | 0 | 0 | 10 | – |
| ClC1=C(Cc2ccccc2)C1 [Compound 46, 1-Benzyl-2-chlorocyclopropene] | 5 | 0 | 10 | – |
| C1=C(Cc2cccs2)C1 [Compound 2, 1-(2-Thienyl)methyl-cyclopropene] | 10 | 7 | – | – |
| Cc1ccc(CC2=CC2)cc1 [Compound 24] | 10 | 10 | – | – |
| CCCC[Si](C)(C)C1=C(C)C1 [Compound 80, 1-(Butyldimethylsilyl)-2-methylcyclopropene] | 0 | 0 | 7 | – |
| C1=C(CCCCCCCN(c2ccccc2)c2ccccc2)C1 [Compound 13, 7-(diphenylamino)-1-heptylcyclopropene] | 0 | 10 | – | – |
| O=C(OCCCCCCCC1=CC1)C1CCCO1 (stereo not drawn) [Compound 54] | 0 | 0 | 2 | – |
| C1=C(CCSc2ccncc2)C1 [Compound 43] | 10 | 0 | – | – |
| O=S(=O)(OCCCCCCCCC1=CC1)c1ccccc1 [Compound 56, 1-(8-Benzenesulfonyloxyoctyl)-cyclopropene] | 5 | 10 | – | – |
| O=C(OCCCC1=CC1)c1cnccn1 [Compound 61] | 0 | 0 | – | Gas @ 438 ppm: rating of protection against epinasty ([1]; gas 438 ppm (in cell), scale 0 to 10): 10(@438 |
| Cc1cc(C)nc(CCC2=CC2)n1 [Compound 42] | – | 2 | – | Gas @ 343.4 ppm: rating of protection against epinasty ([1]; gas 343.4 ppm (in cell), scale 0 to 10): 3(@ 343.4 |
| CCCCCCCCC1=CC1C(=O)O (stereo not drawn) [Compound 78, 1-Octyl-3-carboxy-cyclopropene] | 0 | 0 | 5 | Gas @ 500 ppm: rating of protection against epinasty ([1]; scale 0 to 10): 10 |
| C(CCCCCCC1=CC1)=NN1CCCCC1 [Compound 36, 1-(7-(N-piperidinoimino-heptyl))-cyclopropene] | 5 | 3 | – | Gas @ 500 ppm: rating of protection against epinasty ([1]; scale 0 to 10): 10^c^ |
| C[Si](C)(C)CCCCCCC1C=C1 [Compound 65, 6-(Trimethylsilyl)-hexylcycloprop-2-ene] | 10 | 6 | – | – |
| CC1(CCc2ccccc2)C=C1 [Compound 19] | 2 | 2 | 7.5 | – |
| Cc1ccc(SCCCCCCCCC2=CC2)cc1 [Compound 57, 1-(4-Methylphenylthiooctyl)-cyclopropene] | 0 | 2 | 10 | – |
| Cc1cc(C)c(CC2=CC2)c(C)c1 [Compound 30] | 3 | 0 | 8 | – |

| Compound | Gas @ 10 ppm: visual rating of protection against ethylene-induced epinasty [1] | Spray @10 ppm: visual rating of protection against ethylene-induced epinasty [2] | Gas @ 1000 ppm: visual rating of protection against ethylene-induced epinasty [1] | other results |
| --- | --- | --- | --- | --- |
| C[Si](C)(C)CCC1C=C1 [Compound 66, 2-(Trimethylsilyl)-ethylcycloprop-2-ene] | 10 | 10 | – | – |
| C1=C(CCCC2OCCCO2)C1 [Compound 3, 2-(3-Cycloprop-1-enyl-propyl)-[1,3]dioxane] | 8 | 0 | – | – |
| C1=C(CCCCCCCn2ccnc2)C1 [Compound 12, 7-(1-Imidazole)-1-heptylcyclopropene] | 5.5 | 3.5 | – | Gas, tested at 850 ppm: rating of protection against epinasty ([1]; gas 850 ppm (footnote b or in cell), scale 0 to 10): 10^b |
| C1=C(CCCSc2ccccn2)C1 [Compound 55, 1-(2-Pyridylthiopropyl)-cyclopropene] | – | 3 | – | Gas @ 800 ppm: rating of protection against epinasty ([1]; gas 800 ppm (in cell), scale 0 to 10): 10(@800 |
| CCCCCCCCC1=C([Si](C)(C)C)C1 [Compound 67, 2-Octyl-1-trimethylsilylcyclopropene] | 6 | 3 | – | – |
| CC[Si](CC)(CC)CC1=CC1 [Compound 63, 1-Triethylsilylmethylcyclopropene] | 10 | 10 | – | – |
| Cc1nnsc1C(=O)OCCC1=CC1 [Compound 51] | 0 | 0 | 3 | Spray @ 1000 ppm: rating of protection against epinasty ([2]; spray 1000 ppm (in cell), scale 0 to 10): 8 |
| CCC1=C(COc2cccc(C(F)(F)F)c2)C1 [Compound 37, 1-(3-trifluoromethylphenoxymethyl)-2-ethylcyclopropene] | 0 | 0 | 2 | – |
| ClC1=C(c2ccccc2)C1(Cl)Cl [Compound 41, 1-Phenyl-2,3,3-trichlorocyclopropene] | 0 | 0 | 2 | – |
| O=C(O)CC1(c2ccccc2)C(c2ccccc2)=C1c1ccccc1 [Compound 40, 3-Hydroxycarbonylmethyl-1,2,3-triphenylcyclopropene] | 7 | 0 | – | – |
| CC1=C(Cc2ccccc2)C1 [Compound 8, 1-methyl-2-benzylcyclopropene] | 0 | 0 | 10 | – |
| C1=C(CCSc2ccccn2)C1 [Compound 35] | 10 | 9 | – | – |
| CC1(c2ccccc2)C=C1 [Compound 6, 3-Methyl-3-phenylcyclopropene] | 2.5 | 1 | 7 | – |
| CCC1=C(COS(C)(=O)=O)C1 [Compound 83, 1-(Methanesulfonyloxymethyl)-2-ethylcyclopropene] | 4 | 2 | 10 | – |
| BrC1=C(Cc2ccccc2)C1 [Compound 45, 1-Benzyl-2-bromocyclopropene] | 5 | 0 | 10 | – |
| COc1ccccc1CC1=CC1 [Compound 26] | 10 | 5 | – | – |
| 1-(1-Methyl-2-pyrrolecarbonyloxypropyl)-cyclopropene [Compound 59] | 3 | 4 | – | – |
